Results published in patent publication US10512268B2, “Herbicidal compounds” (Syngenta Participations AG, priority 2015, dated 2019).

How the values were obtained:
Type in all cases: in vivo
Panicum milaceum (PANMI) = assay: Comparative testing, glasshouse herbicide test, spray one day after sowing
Experimental: (§1) Seeds of a variety of test species are sown in standard soil in pots. After cultivation for one day under controlled conditions in a glasshouse (at 24/16° C., day/night; 14 hours light; 65% humidity), an aqueous spray solution derived from the formulation of the technical active ingredient in 0.6 ml acetone and 45 ml formulation solution containing 10.6% Emulsogen EL (Registry number 61791-12-6), 42.2% N-methyl pyrrolidone, 42.2% dipropylene glycol monomethyl ether (CAS RN 34590-94-8) and 0.2% X-77 (CAS RN 11097-66-8) is applied.
(§2) The test plants are then grown in a glasshouse under controlled conditions in a glasshouse (at 24/16° C., day/night; 14 hours light; 65% humidity) and watered twice daily. After 21 days, the test is evaluated (100=total damage to plant; 0=no damage to plant). Test plants (weed species) include: Alopecurus myosuroides (ALOMY), Bidens pilosa (BIDPI), Euphorbia heterophylla (EPHHL), Lolium perenne (LOLPE), Panicum milaceum (PANMI), Sida spinosa (SIDSP) and Stellaria media STEME).

Stellaria media (STEME) = assay: as above
Experimental: as §1, §2

Bidens pilosa (BIDPI) = assay: as above
Experimental: as §1, §2

[1] = tested on: Alopecurus myosuroides (ALOMY); assay: as above
Experimental: as §1, §2

[2] = tested on: Euphorbia heterophylla (EPHHL); assay: as above
Experimental: as §1, §2

Sida spinosa (SIDSP) = assay: as above
Experimental: as §1, §2

Lolium perenne (LOLPE) [3] = assay: as above
Experimental: as §1, §2

[4] = tested on: Amaranthus retoflexus (AMARE); assay: Further testing, post-emergence application; conditions: 1000 g/h, after 13 days
Experimental: (§3) Seeds of a variety of test species are sown in standard soil in pots (Lolium perenne (LOLPE), Solanum nigrum (SOLNI), Amaranthus retoflexus (AMARE), Setaria faberi (SETFA), Echinochloa crus-galli (ECHCG), Ipomoea hederacea (IPOHE)). After cultivation for one day (pre-emergence) or after 8 days cultivation (post-emergence) under controlled conditions in a glasshouse (at 24/16° C., day/night; 14 hours light; 65% humidity), the plants are sprayed with an aqueous spray solution derived from the formulation of the technical active ingredient in acetone/water (50:50) solution containing 0.5% Tween 20 (polyoxyethelyene sorbitan monolaurate, CAS RN 9005-64-5). Compounds are applied at 1000 g/h unless otherwise stated. The test plants are then grown in a glasshouse under controlled conditions in a glasshouse (at 24/16° C., day/night; 14 hours light; 65% humidity) and watered twice daily. After 13 days for pre and post-emergence, the test is evaluated for the percentage damage caused to the plant. The biological activities are shown in the following table on a five point scale (5=80-100%; 4=60-79%; 3=40-59%; 2=20-39%; 1=0-19%).

[5] = tested on: Ipomoea hederacea (IPOHE); assay: Further testing, post-emergence application; conditions: 1000 g/h, after 13 days
Experimental: as §3

Solanum nigrum (SOLNI) [6] = assay: Further testing, post-emergence application; conditions: 1000 g/h, after 13 days
Experimental: as §3

[7] = tested on: Echinochloa crus-galli (ECHCG); assay: Further testing, post-emergence application; conditions: 1000 g/h, after 13 days
Experimental: as §3

Setaria faberi (SETFA) [8] = assay: Further testing, post-emergence application; conditions: 1000 g/h, after 13 days
Experimental: as §3

Lolium perenne (LOLPE) [9] = assay: Further testing, post-emergence application; conditions: 1000 g/h, after 13 days
Experimental: as §3

[10] = tested on: Amaranthus retoflexus (AMARE); assay: Further testing, pre-emergence application; conditions: 1000 g/h, after 13 days
Experimental: as §3

[11] = tested on: Ipomoea hederacea (IPOHE); assay: Further testing, pre-emergence application; conditions: 1000 g/h, after 13 days
Experimental: as §3

Solanum nigrum (SOLNI) [12] = assay: Further testing, pre-emergence application; conditions: 1000 g/h, after 13 days
Experimental: as §3

[13] = tested on: Echinochloa crus-galli (ECHCG); assay: Further testing, pre-emergence application; conditions: 1000 g/h, after 13 days
Experimental: as §3

Setaria faberi (SETFA) [14] = assay: Further testing, pre-emergence application; conditions: 1000 g/h, after 13 days
Experimental: as §3

Lolium perenne (LOLPE) [15] = assay: Further testing, pre-emergence application; conditions: 1000 g/h, after 13 days
Experimental: as §3

[16] = Rate 125, evaluated after 21 days
[17] = Rate 250, evaluated after 21 days

Structure (SMILES)	damage to plant (100=total damage to plant; 0=no damage to plant) (Panicum milaceum (PANMI); [16])	damage to plant (100=total damage to plant; 0=no damage to plant) (Panicum milaceum (PANMI); [17])	damage to plant (100=total damage to plant; 0=no damage to plant) (Stellaria media (STEME); [16])	damage to plant (100=total damage to plant; 0=no damage to plant) (Stellaria media (STEME); [17])	damage to plant (100=total damage to plant; 0=no damage to plant) (Bidens pilosa (BIDPI); [16])	damage to plant (100=total damage to plant; 0=no damage to plant) (Bidens pilosa (BIDPI); [17])	damage to plant (100=total damage to plant; 0=no damage to plant) [1, 16]	damage to plant (100=total damage to plant; 0=no damage to plant) [1, 17]	damage to plant (100=total damage to plant; 0=no damage to plant) [2, 16]	damage to plant (100=total damage to plant; 0=no damage to plant) [2, 17]	damage to plant (100=total damage to plant; 0=no damage to plant) (Sida spinosa (SIDSP); [16])	damage to plant (100=total damage to plant; 0=no damage to plant) (Sida spinosa (SIDSP); [17])	damage to plant (100=total damage to plant; 0=no damage to plant) (Lolium perenne (LOLPE) [3]; [16])	damage to plant (100=total damage to plant; 0=no damage to plant) (Lolium perenne (LOLPE) [3]; [17])	also measured
Cn1nnnc1NC(=O)c1nn(C)c(=O)c(C2CCCCC2)c1Cl [Compound 1.001]	80	80	100	100	100	100	40	40	90	90	90	90	60	60	percentage damage caused to the plant, five point scale [4]: 5 (5=80-100%); percentage damage caused to the plant, five point scale [5]: 5 (5=80-100%); percentage damage caused to the plant, five point scale (Solanum nigrum (SOLNI) [6]): 5 (5=80-100%); percentage damage caused to the plant, five point scale [7]: 5 (5=80-100%); percentage damage caused to the plant, five point scale (Setaria faberi (SETFA) [8]): 5 (5=80-100%); percentage damage caused to the plant, five point scale (Lolium perenne (LOLPE) [9]): 5 (5=80-100%); percentage damage caused to the plant, five point scale [10]: 5 (5=80-100%); percentage damage caused to the plant, five point scale [11]: 5 (5=80-100%); percentage damage caused to the plant, five point scale (Solanum nigrum (SOLNI) [12]): 5 (5=80-100%); percentage damage caused to the plant, five point scale [13]: 5 (5=80-100%); percentage damage caused to the plant, five point scale (Setaria faberi (SETFA) [14]): 5 (5=80-100%); percentage damage caused to the plant, five point scale (Lolium perenne (LOLPE) [15]): 5 (5=80-100%)
Cn1nc(C(=O)C2C(=O)CCCC2=O)c(Cl)c(C2CCCCC2)c1=O [Compound A, 2-(4-chloro-5-cyclohexyl-1-methyl-6-oxo-pyridazine-3-carbonyl)cyclohexane-1,3-dione, reference compound]	0	0	50	60	0	40	0	20	0	20	0	0	10	20	
